Data from patent publication US11198713B2, “Agents modulating beta-catenin functions and methods thereof” (FOG PHARMACEUTICALS, INC., priority 2017, dated 2021).
Numbered stars: 1 amine (or outer) side, 2 acyl side, 3 side chain; on linkers, the order of the positions; unused ones are H or OH. Bridge positions count the residues as written; N and C are the ends. Square brackets hold non-standard residues; d marks the D form. Peptide text beside a SMILES is read from it. 3Aminoazetidine3carboxyl = O=C(C1(N[*:1])CN([*:3])C1)[*:2]; dαMeOrn(Me) = CN(CCC[C@@](C)(N[*:1])C(=O)[*:2])[*:3]; αMeDab(Me) = CN(CC[C@](C)(N[*:1])C(=O)[*:2])[*:3]; X2 = O=C(OCC=CCOC(=O)[*:2])[*:1]

The compounds below were run against T1, full-length beta-catenin (Axin site) (Homo sapiens, UniProt P35222) (assay: Competition fluorescence polarization assay (Axin site probe)). Details: competition fluorescence polarization, Table 2; read-out: in vitro FP EC50.
T1 construct: 15 nM full-length beta-catenin, 20 nM FITC labeled peptide in buffer
T1 sequence (P35222 1-781): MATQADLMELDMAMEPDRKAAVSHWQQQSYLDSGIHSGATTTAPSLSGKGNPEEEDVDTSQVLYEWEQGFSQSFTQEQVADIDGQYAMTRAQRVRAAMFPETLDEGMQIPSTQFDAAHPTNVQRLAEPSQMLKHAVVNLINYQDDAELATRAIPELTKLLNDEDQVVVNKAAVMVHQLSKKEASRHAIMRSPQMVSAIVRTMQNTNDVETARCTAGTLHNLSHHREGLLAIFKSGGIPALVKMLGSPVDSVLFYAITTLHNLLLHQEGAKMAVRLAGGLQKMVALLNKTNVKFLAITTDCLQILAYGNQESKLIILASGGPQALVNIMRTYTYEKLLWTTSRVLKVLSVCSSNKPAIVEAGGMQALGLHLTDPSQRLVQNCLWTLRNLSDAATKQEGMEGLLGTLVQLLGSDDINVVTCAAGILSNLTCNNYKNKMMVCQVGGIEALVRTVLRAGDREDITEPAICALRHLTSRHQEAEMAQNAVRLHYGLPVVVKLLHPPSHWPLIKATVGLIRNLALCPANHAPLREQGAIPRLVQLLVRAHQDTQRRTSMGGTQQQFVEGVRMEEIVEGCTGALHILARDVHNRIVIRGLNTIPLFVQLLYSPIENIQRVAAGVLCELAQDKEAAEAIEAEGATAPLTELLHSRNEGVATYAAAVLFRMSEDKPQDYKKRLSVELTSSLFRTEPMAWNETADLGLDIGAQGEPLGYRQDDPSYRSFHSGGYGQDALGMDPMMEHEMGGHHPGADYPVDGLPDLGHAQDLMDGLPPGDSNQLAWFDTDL
Type: binding
Procedure, shortened: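 Competition FP: 15 nM full-length β-catenin pre-incubated 5 min with 20 nM FITC-labelled stapled Axin-site peptide, then titrated peptide added (3-fold series from 5 μM) for 15 min in the dark. Buffer 50 mM Tris pH 8.0, 250 mM NaCl, 2% glycerol, 0.5 mM EDTA; duplicate reads.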

EC50, 500 to 5000 nM:
CC[C@H](C)[C@@H]1NC(=O)[C@](C)(NC(=O)[C@H](CCC(N)=O)NC(=O)[C@@H]2CCCN2C(C)=O)CCCN(C)C(=O)OCC=CCCC[C@](C)(C(=O)N[C@@H](Cc2c[nH]cn2)C(=O)N[C@H](C(=O)N[C@@H](CCCNC(=N)N)C(=O)N[C@@H](CCCNC(=N)N)C(=O)N[C@H](C(=O)N[C@@H](Cc2c[nH]c3ccccc23)C(=O)N[C@@H](CCCNC(=N)N)C(N)=O)C(C)C)C(C)C)NC(=O)[C@H](CC(=O)O)NC(=O)[C@H](CC(C)C)NC1=O (single isomer, unassigned) [FP0783c, Ac-P-Q-MI-I-L-D-R5-H-V-R-R-V-W-R-NH2]
CC[C@H](C)[C@@H]1NC(=O)[C@H](Cc2c[nH]cn2)NC(=O)[C@H](C)NC(=O)[C@H](CC(=O)O)NC(=O)[C@H](CC(C)C)NC(=O)[C@H]([C@@H](C)CC)NC(=O)[C@](C)(NC(=O)[C@H](C)NC(C)=O)CCCCCCC=CCOC(=O)N2CC[C@@](C(=O)N[C@@H](Cc3cccc4ccccc34)C(=O)N[C@H](C(=O)N[C@@H](Cc3c[nH]c4ccccc34)C(N)=O)C(C)C)(C2)NC1=O (single isomer, unassigned) [FP0365c Isomer 1, Ac-A-R8-I-L-D-A-H-I-MB-1NapA-V-W-NH2]
CC[C@H](C)[C@@H]1NC(=O)[C@](C)(NC(=O)[C@H](CCC(N)=O)NC(=O)[C@@H]2CCCN2C(C)=O)CCCC=CCOC(=O)N(C)CCC[C@](C)(C(=O)N[C@@H](Cc2c[nH]cn2)C(=O)N[C@H](C(=O)N[C@@H](CCCNC(=N)N)C(=O)N[C@@H](CCCNC(=N)N)C(=O)N[C@H](C(=O)N[C@@H](Cc2c[nH]c3ccccc23)C(=O)N[C@@H](CCCNC(=N)N)C(N)=O)C(C)C)C(C)C)NC(=O)[C@H](CC(=O)O)NC(=O)[C@H](CC(C)C)NC1=O (single isomer, unassigned) [FP0777c, Ac-P-Q-R5-I-L-D-MI-H-V-R-R-V-W-R-NH2]

EC50, < 100 nM:
CC[C@H](C)[C@@H]1NC(=O)[C@@]2(NC(=O)[C@H](C)NC(=O)[C@@H]3CCCN3C(C)=O)CCN(C2)C(=O)OCC=CCCCCCC[C@@](C)(C(=O)N[C@@H](CCCNC(=N)N)C(=O)N[C@H](C(=O)N[C@@H](Cc2c[nH]c3ccccc23)C(N)=O)C(C)C)NC(=O)[C@H](C(C)C)NC(=O)[C@H](Cc2c[nH]cn2)NC(=O)[C@H](C)NC(=O)[C@H](CC(=O)O)NC(=O)[C@H](CC(C)C)NC1=O [FP0005c, Ac-P-A-MC-I-L-D-A-H-V-S8-R-V-W-NH2]
CC[C@H](C)[C@@H]1NC(=O)[C@H](Cc2c[nH]cn2)NC(=O)[C@H](C)NC(=O)[C@H](CC(=O)O)NC(=O)[C@H](CC(C)C)NC(=O)[C@H]([C@@H](C)CC)NC(=O)[C@](C)(NC(=O)[C@H](C)NC(C)=O)CCCCCCC=CCOC(=O)N2CC[C@@](C(=O)N[C@@H](CCCCNC(=N)N)C(=O)N[C@H](C(=O)N[C@@H](Cc3c[nH]c4ccccc34)C(N)=O)C(C)C)(C2)NC1=O [FP0634c, Ac-A-R8-I-L-D-A-H-I-MB-hArg-V-W-NH2]
CC[C@H](C)[C@@H]1NC(=O)[C@H](Cc2c[nH]cn2)NC(=O)[C@H](C)NC(=O)[C@H](CC(=O)O)NC(=O)[C@H](CC(C)C)NC(=O)[C@H]([C@@H](C)CC)NC(=O)C2(NC(=O)[C@H](C)NC(C)=O)CN(C2)C(=O)OCC=CCOC(=O)N(C)CC[C@@](C)(C(=O)N[C@@H](CCCNC(=N)N)C(=O)N[C@H](C(=O)N[C@@H](Cc2c[nH]c3ccccc23)C(N)=O)C(C)C)NC1=O [FP0611c, Ac-A-MA-I-L-D-A-H-I-MF-R-V-W-NH2] (Ac-A[3Aminoazetidine3carboxyl]ILDAHI[αMeDab(Me)]RVW-NH2; linker 2-9 via X2)

EC50, > 5000 nM:
CC[C@H](C)[C@@H]1NC(=O)[C@](C)(NC(=O)[C@H](CCC(N)=O)NC(=O)[C@@H]2CCCN2C(C)=O)CCCCCC=CCN2CC[C@](C(=O)N[C@@H](Cc3c[nH]cn3)C(=O)N[C@H](C(=O)N[C@@H](CCCNC(=N)N)C(=O)N[C@@H](CCCNC(=N)N)C(=O)N[C@H](C(=O)N[C@@H](Cc3c[nH]c4ccccc34)C(=O)N[C@@H](CCCNC(=N)N)C(N)=O)C(C)C)C(C)C)(C2)NC(=O)[C@H](CC(=O)O)NC(=O)[C@H](CC(C)C)NC1=O (single isomer, unassigned) [FP0768a, Ac-P-Q-R7-I-L-D-MC-H-V-R-R-V-W-R-NH2]
CC[C@H](C)[C@@H]1NC(=O)[C@H](Cc2ccccn2)NC(=O)[C@H](C)NC(=O)[C@H](CC(=O)O)NC(=O)[C@H](CC(C)C)NC(=O)[C@H]([C@@H](C)CC)NC(=O)[C@](C)(NC(=O)[C@H](C)NC(C)=O)CCCCCCC=CCOC(=O)N2CC[C@@](C(=O)N[C@@H](CC3CCCCC3)C(=O)N[C@H](C(=O)N[C@@H](Cc3c[nH]c4ccccc34)C(N)=O)C(C)C)(C2)NC1=O (single isomer, unassigned) [FP0566c Isomer 1, Ac-A-R8-I-L-D-A-2pyr-I-MB-Cha-V-W-NH2]
CC[C@H](C)[C@@H]1NC(=O)[C@H](Cc2ccccn2)NC(=O)[C@H](C)NC(=O)[C@H](CC(=O)O)NC(=O)[C@H](CC(C)C)NC(=O)[C@H]([C@@H](C)CC)NC(=O)[C@](C)(NC(=O)[C@H](C)NC(C)=O)CCCCCCC=CCOC(=O)N2CC[C@@](C(=O)N[C@@H](Cc3ccc(O)cc3)C(=O)N[C@H](C(=O)N[C@@H](Cc3c[nH]c4ccccc34)C(N)=O)C(C)C)(C2)NC1=O (single isomer, unassigned) [FP0564c Isomer 2, Ac-A-R8-I-L-D-A-2pyr-I-MB-Y-V-W-NH2]
CC[C@H](C)[C@@H]1NC(=O)[C@H](Cc2ccccn2)NC(=O)[C@H](C)NC(=O)[C@H](CC(=O)O)NC(=O)[C@H](CC(C)C)NC(=O)[C@H]([C@@H](C)CC)NC(=O)[C@](C)(NC(=O)[C@H](C)NC(C)=O)CCCCCCC=CCOC(=O)N2CC[C@@](C(=O)N[C@H](C(=O)N[C@H](C(=O)N[C@@H](Cc3c[nH]c4ccccc34)C(N)=O)C(C)C)C(C)C)(C2)NC1=O (single isomer, unassigned) [FP0562c Isomer 2, Ac-A-R8-I-L-D-A-2pyr-I-MB-V-V-W-NH2]
CC[C@H](C)[C@@H]1NC(=O)[C@H](Cc2ccccn2)NC(=O)[C@H](C)NC(=O)[C@H](CC(=O)O)NC(=O)[C@H](CC(C)C)NC(=O)[C@H]([C@@H](C)CC)NC(=O)[C@](C)(NC(=O)[C@H](C)NC(C)=O)CCCCCCC=CCOC(=O)N2CC[C@@](C(=O)N[C@@H](Cc3cccnc3)C(=O)N[C@H](C(=O)N[C@@H](Cc3c[nH]c4ccccc34)C(N)=O)C(C)C)(C2)NC1=O (single isomer, unassigned) [FP0573c Isomer 1, Ac-A-R8-I-L-D-A-2pyr-I-MB-3pyr-V-W-NH2]

EC50, 100 to 500 nM:
CC[C@H](C)[C@@H]1NC(=O)[C@H](Cc2c[nH]cn2)NC(=O)[C@H](C)NC(=O)[C@H](CC(=O)O)NC(=O)[C@H](CC(C)C)NC(=O)[C@H]([C@@H](C)CC)NC(=O)[C@](C)(NC(=O)[C@H](C)NC(C)=O)CCCCC=CCOC(=O)N(C)CC[C@@](C)(C(=O)N[C@@H](CCCNC(=N)N)C(=O)N[C@H](C(=O)N[C@@H](Cc2c[nH]c3ccccc23)C(N)=O)C(C)C)NC1=O (single isomer, unassigned) [FP0502c Isomer 2, Ac-A-R6-I-L-D-A-H-I-MF-R-V-W-NH2]
CC[C@H](C)[C@@H]1NC(=O)[C@H](Cc2c[nH]cn2)NC(=O)[C@H](C)NC(=O)[C@H](CC(=O)O)NC(=O)[C@H](CC(C)C)NC(=O)[C@H]([C@@H](C)CC)NC(=O)[C@](C)(NC(=O)[C@H](C)NC(C)=O)CCCCCCC=CCOC(=O)N2CC[C@@](C(=O)N[C@@H](CCCNC(=N)N)C(=O)N[C@H](C(=O)N[C@H](Cc3c[nH]c4ccccc34)C(N)=O)C(C)C)(C2)NC1=O [FP0630c, Ac-A-R8-I-L-D-A-H-I-MB-R-V-dW-NH2]
CC[C@H](C)[C@@H]1NC(=O)[C@H](Cc2c[nH]cn2)NC(=O)[C@H](C)NC(=O)[C@H](CC(=O)O)NC(=O)[C@H](CC(C)C)NC(=O)[C@H]([C@@H](C)CC)NC(=O)C2(NC(=O)[C@H](C)NC(C)=O)CN(C2)C(=O)OCC=CCOC(=O)N(C)CCC[C@](C)(C(=O)N[C@@H](CCCNC(=N)N)C(=O)N[C@H](C(=O)N[C@@H](Cc2c[nH]c3ccccc23)C(N)=O)C(C)C)NC1=O [FP0625c, Ac-A-MA-I-L-D-A-H-I-MI-R-V-W-NH2] (Ac-A[3Aminoazetidine3carboxyl]ILDAHI[dαMeOrn(Me)]RVW-NH2; linker 2-9 via X2)

Same assay, conditions: competition with FITC labeled Axin-site probe, 15 nM full-length beta-catenin; read-out: FP EC50

EC50, > 5000 nM:
CC[C@H](C)[C@@H]1NC(=O)[C@@](C)(NC(=O)[C@H](CCC(N)=O)NC(=O)[C@@H]2CCCN2C(C)=O)CCCC=CCN2CC(C(=O)N[C@@H](Cc3c[nH]cn3)C(=O)N[C@H](C(=O)N[C@@H](CCCNC(=N)N)C(=O)N[C@@H](CCCNC(=N)N)C(=O)N[C@H](C(=O)N[C@@H](Cc3c[nH]c4ccccc34)C(=O)N[C@@H](CCCNC(=N)N)C(N)=O)C(C)C)C(C)C)(C2)NC(=O)[C@H](CC(=O)O)NC(=O)[C@H](CC(C)C)NC1=O (single isomer, unassigned) [FP-0734, Ac-P-Q-S5-I-L-D-Az-H-V-R-R-V-W-R-NH2]
